What was measured:
[1] = test system: immortalized human uterine smooth muscle (UTSM) cells; experiment: BRD inhibitor screening by MTT cell proliferation assay, UTSM cells; type: cell-based; details: 24 hours and 48 hours
Description: (§1) The immortalized human leiomyoma cell line (HuLM) and immortalized human uterine smooth muscle (UTSM) cells were cultured and maintained in phenol red-free, Dulbecco's Modified Eagle Medium: Nutrient Mixture F-12. The cells were grown at 37° C. and 5% CO2 in an incubator with saturating humidity.
(§2) Cell proliferation was measured using a 3-(4,5-dimethylthiazol-2-yl)-2,5-diphenyltetrazolium bromide (MTT) assay. 2×10^4 UTSM or HuLM cells per well were seeded into 12-well tissue culture plates in the absence or presence of each BRD inhibitor from Table 1 for 24 hours or 48 hours. The inhibitors used in this assay were from the Epigenetic Library at the University of Illinois at Chicago. This assay was performed three times in triplicate.

[2] = test system: immortalized human leiomyoma cell line (HuLM); experiment: BRD inhibitor screening by MTT cell proliferation assay, HuLM cells; type: cell-based; details: 24 hours and 48 hours
Description: as §1, §2

HuLM cells [3] = experiment: RNA-sequencing / transcriptome analysis of treated HuLM cells; type: cell-based, human; details: 5 μM, 48 hr
Description: To determine the mechanism underlying the inhibitory effect of BRD9 inhibition on the UFs, the HuLM cells were treated with BRD9 inhibitor I-BRD9 (5 μM, n=4), TP-472 (5 μM, n=3), and DMSO vehicle control (n=4) for 48 hr. RNA was isolated using Trizol. RNA quality and quantity were assessed using the Agilent bio-analyzer. Strand-specific RNA-SEQ libraries were prepared using a TruSEQ total RNA-SEQ library protocol (Illumina provided). Library quality and quantity were assessed using the Agilent bio-analyzer and libraries were sequenced using an Illumina NovaSEQ6000 (illumine provided reagents and protocols).
A variety of R packages was used for this analysis. All graphics and data wrangling were handled using the tidyverse suite of packages (available from tidyverse.org). All packages used are available from the Comprehensive R Archive Network (CRAN), Bioconductor.org, or GitHub. The reads were mapped to the human reference transcriptome using STAR, version 2.6.1d, as previously described (Dobin et al., Bioinformatics 29 (1):15-21 (2013)). The quality of raw reads, as well as the results of STAR mapping, are generated using fastqc (available from bioinformatics.babraham.ac.uk/projects/fastqc/) and multiqc (available from multiqc.info). Raw reads were mapped to the human reference transcriptome using Salmon, version 1.4.0 (available from combine-lab.github.io/salmon/). After reading mapping with Salmon, Bioconductor (available from bioconductor.org/packages/release/bioc/html/tximport) was used to read Salmon outputs into the R environment. Annotation data from Gencode V34 was used to summarize data from transcript-level to gene-level.

HuLM cells [4] = experiment: Western immunoblot of HuLM cells after BRD inhibition treatment; type: cell-based, human; details: 0-25 μM, 48 hours
From the text: Cells were collected and lysed in RIPA lysis buffer with protease and phosphatase inhibitor cocktail (Thermo Scientific, Waltham, MA, USA), and the protein was quantified using the Bradford method (Bio-Rad Protein Assay kit). The antibodies used were: METTL3 (ab195352, Abcam), YTHDC1 (ab122340, Abcam), YTHDC2 (35440, Cell Signaling), YTHDF2 (ab220163, Abcam), BCL-2 (ab182858, Abcam), FN (26836, Cell Signaling), PCNA (GTX100539, Genetex), BRD2 (5848, cell signaling), BRD3 (ab50818, Abcam), BRD9 (58906, Cell Signaling). The antigen-antibody complex was detected with Trident Femto Western HRP substrate (GeneTex, Irvine, CA, USA). Specific protein bands were visualized using ChemiDoc XRS ? molecular imager (Bio-Rad, Hercules, CA, USA).
HuLM cells were cultured in phenol red-free, 10% fetal bovine serum Dulbecco's Modified Eagle Medium: Nutrient Mixture F-12 at 37° C., 5% CO2 in the absence or presence of the BRD inhibitors I-BRD9 and TP-472 for 48 hours respectively. The concentrations of both inhibitors were used in the range of 0-25 μM. Cells were collected after treatment for Western immunoblot as described above.

UTSM and HuLM cells = experiment: Cell proliferation by trypan blue exclusion assay, HuLM versus UTSM cells; type: cell-based, human; details: 1-25 μM, 48 hours
Description: Cell proliferation was measured using trypan blue exclusion assay. UTSM and HuLM cells (2×10^4 cells per well) were seeded into 12-well tissue culture plates. After 24 hours the cells were cultured in the absence or presence of the BRD inhibitor I-BET762 or (+)-JQ1 at a dose range from 1-25 μM for 48 hours. DMSO was used as a vehicle control. Cells were trypsinized, collected by centrifuge, and resuspended in serum-free medium. Equal volumes of 0.4% trypan blue and cell suspension were mixed and cells were counted using a hemacytometer.

| SMILES | myometrial (UTSM) cell proliferation [1] | UF (HuLM) cell proliferation [2] | Hallmark analysis: pathway alteration in response to inhibition of BRD (HuLM cells [3]) | pathways altered (bioinformatic analysis of RNA sequencing) (HuLM cells [3]) | expression of METTL3 (HuLM cells [4]) | expression of YTHDC1 (HuLM cells [4]) | expression of YTHDC2 (HuLM cells [4]) | fibronectin (FN) levels (HuLM cells [4]) | levels of PCNA (marker for cell proliferation) (HuLM cells [4]) | cellular proliferation, UF cells versus myometrium cells (UTSM and HuLM cells) | expression of YTHDF2 (HuLM cells [4]) | expression of anti-apoptosis protein BCL-2 (HuLM cells [4]) |
| --- | --- | --- | --- | --- | --- | --- | --- | --- | --- | --- | --- | --- |
| Cc1cc(=O)n(C)c2cc(N3C(=O)CC[C@H](NS(=O)(=O)CC(C)C)[C@H]3c3ccc(Cl)cc3)ccc12 [LP99] | not myometrial cell proliferation | selectively inhibited UF | – | – | – | – | – | – | – | – | – | – |
| CCCS(=O)(=O)c1nc(NC2CC2)cc(-c2ccc3c(ccn3C3CC(C)(C)NC(C)(C)C3)c2)n1 [NVS-CECR2-1] | not myometrial cell proliferation | selectively inhibited UF | – | – | – | – | – | – | – | – | – | – |
| Cn1cc(CCn2cnc(-c3cnn(C)c3)c2-c2ccc(C#N)cc2)cn1 [BAZ2-ICR] | not myometrial cell proliferation | selectively inhibited UF | – | – | – | – | – | – | – | – | – | – |
| CC(=O)c1cc(-c2cc(C(=O)NC3CC3)ccc2C)c2ncccn12 [TP-472] | not myometrial cell proliferation | selectively inhibited UF | E2F, MYC Target, G2M checkpoint, and mitotic spindle pathways | altered the pathways related to biological processes, transcriptional factors | dose-dependent downregulation | dose-dependent downregulation | dose-dependent downregulation | decreased FN levels | decreasing the levels of PCNA | – | – | – |
| CCNC(=O)C[C@@H]1N=C(c2ccc(Cl)cc2)c2cc(OC)ccc2-n2c(C)nnc21 [I-BET762] | – | – | – | – | – | – | – | – | – | reduced cellular proliferation more potently in UF cells than myometrium cells in a dose dependent manner | – | – |
| CCn1cc(-c2cccc(C(F)(F)F)c2)c2sc(C(=N)NC3CCS(=O)(=O)CC3)cc2c1=O [I-BRD9] | not myometrial cell proliferation | selectively inhibited UF | E2F, MYC Target, G2M checkpoint, and mitotic spindle pathways | altered the pathways related to biological processes, transcriptional factors | – | dose-dependent downregulation | dose-dependent downregulation | decreased FN levels | decreasing the levels of PCNA | – | dose-dependent downregulation | increased the expression of the anti-apoptosis protein BCL-2 |

— patent US12533360B2, “Inhibition of BRD proteins suppresses the phenotype of uterine fibroids” (The University of Chicago, priority 2021, dated 2026)
